Data from article PMC9682871 (Antiviral Research, 2022).

How the values were obtained:
[1] = system: pseudovirus presenting the spike of MERS-CoV; assay: organism not typed; type: cell-based
[2] = system: SARS-CoV; type: cell-based
[3] = system: HCoV-OC43; type: cell-based
[4] = system: HCoV-229E; type: cell-based
[5] = system: MERS-CoV; type: cell-based
[6] = system: Huh-7 cells
[7] = system: SARS-CoV-2; type: cell-based
[8] = system: A549 cells; type: cell-based; details: 10 μM, 12 h
[9] = system: SARS-CoV-2; details: hamster, in vivo
[10] = system: A549 cells; type: cell-based; details: 10 μM, 12 h; remark: listed apart in the source
[11] = system: MERS-CoV; type: cell-based; remark: listed apart in the source

With CCCCc1oc2ccccc2c1C(=O)c1cc(I)c(OCCN(CC)CC)c(I)c1 [amiodarone] as the compound, how does the “pseudovirus infection / luciferase signal” value [1] read?
Its value is “outstanding antiviral activity”.

And the “potency against SARS-CoV” value [2]?
The value was “strong potency”.

What about the “efficacy against HCoV-OC43” value [3] of the same compound?
Its value is “showed efficacy”.

What about the “efficacy against HCoV-229E” value [4] of the same compound?
The value was “showed efficacy”.

And the “inhibition by time of addition” value [5]?
Its value is “strongly inhibited the viral infection when added at an early time point”.

For O=C(c1ccc(OCCN2CCCCC2)cc1)c1c(-c2ccc(O)cc2)sc2cc(O)ccc12 [raloxifene], which EC50 ([1]; Huh-7, read-out: Pseudovirus (EC50, μM)) is on record?
Its EC50 is 0.2 µM.

And the “potency against SARS-CoV” value [2]?
The value was “strong potency”.

What about the “cytotoxic effects in the pseudovirus assay” value [6] of the same compound?
Its value is “no significant cytotoxic effects”.

And the “efficacy against HCoV-OC43” value [3]?
The value was “effective”.

What about the “efficacy against HCoV-229E” value [4] of the same compound?
Its value is “effective”.

What about the “inhibition by time of addition” value [5] of the same compound?
The value was “more potent when added at the earlier stages”.

What about the “inhibition of SARS-CoV-2 infection by viral RNA” value [7] of the same compound?
Its value is “strong potency”.

What about the “total cellular cholesterol” value [8] of the same compound?
Its value is “marginal elevation”.

And the “activity level or survival rate” value [9]?
The value was “no significant changes”.

What about the “CH25H gene expression” value [10] of the same compound?
The value was “do not show alteration”.

And the “SQLE expression” value [10]?
Its value is “significantly enhanced”.

Which results are given for Cc1cccc(C)c1OCC(=O)N[C@@H](Cc1ccccc1)[C@@H](O)C[C@H](Cc1ccccc1)NC(=O)[C@H](C(C)C)N1CCCNC1=O [lopinavir]?
inhibition by time of addition [5]: showed efficacy when added at a relatively later stage of infection; MERS-CoV infection assay, immunofluorescence [11]: quenched in a concentration-dependent manner

With CCN(CC)CCCC(C)Nc1ccnc2cc(Cl)ccc12 (centres unmarked) [chloroquine] as the compound, how does the “inhibition by time of addition” value [5] read?
Its value is “stage-selective activity”.

And the “MERS-CoV infection assay, immunofluorescence” value [11]?
The value was “quenched in a concentration-dependent manner”.
